Data on 1 molecule can be found in patent US9371265B2, “Compositions and methods related to inhibitors of JAK kinase” (EP PHARMA, INC., priority 2012, dated 2016).

Each structure is given as a SMILES string.

The target of data set [1] is CDK9 (Homo sapiens, UniProt P50750). The experiment in a line: Kinase panel: CDK9. It is filed as biochemical. To be noted: 10 μM EP009. As to the method: (§1) Achieving JAK3 selectivity remains a significant challenge in the development of new small molecules for the treatment of cancer and immune-derived diseases. As such, the inventors employed cell-based screening assays of small-molecule libraries based upon the chemical scaffold of the established JAK3 inhibitor NC1153 (Stepkowski et al., J Immunol. (2005), 175(7):4236-4246) EP009 (FIG. 2A) was selected as a lead compound due to improved intrinsic stability (>95% purity in various solvents at 37° C. for 24 hours; FIG. 3) and high-degree of JAK3 selectivity. To test JAK3 versus JAK2 specificity of EP009, the IL-2/JAK3-dependent Kit225, and IL-3/JAK2-dependent BaF/3 cell lines were used. Kit225 and BaF/3 cells growing in the presence of IL-2 or IL-3, respectively, were treated with ascending concentrations of EP009 for 12 hours and cellular JAK3 and JAK2 tyrosine phosphorylation levels detected by Western blot analysis (FIGS. 2B and 2C). Following densitometric analysis, EP009 was determined to dose-dependently reduce IL-2-mediated JAK3 tyrosine phosphorylation with a cellular 50% inhibitory concentration (IC50) between 10 and 20 μM (FIG. 2B). […] To globally evaluate specificity, the inhibitory activity of EP009 was measured against a panel of protein kinases distributed throughout the kinome using the scanEDGE profiling service (KINOMEscan). […]
CDK9, sequence (P50750 whole entry): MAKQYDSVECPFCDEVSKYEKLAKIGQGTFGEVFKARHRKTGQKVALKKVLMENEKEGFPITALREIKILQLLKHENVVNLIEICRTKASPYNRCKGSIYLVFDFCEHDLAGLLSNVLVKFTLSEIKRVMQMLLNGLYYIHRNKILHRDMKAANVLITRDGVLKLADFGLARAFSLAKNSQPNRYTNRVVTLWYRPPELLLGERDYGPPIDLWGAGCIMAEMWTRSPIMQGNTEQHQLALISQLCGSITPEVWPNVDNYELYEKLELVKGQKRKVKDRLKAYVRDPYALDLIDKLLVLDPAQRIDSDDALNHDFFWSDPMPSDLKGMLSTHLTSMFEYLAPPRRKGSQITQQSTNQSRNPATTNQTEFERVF

In data set [2] the target is INSR (Homo sapiens, UniProt P06213). The experiment in a line: Kinase panel: INSR. The data set is classed as biochemical. Particulars: 10 μM EP009. As to the method: as §1
INSR, sequence (P06213 28-1382): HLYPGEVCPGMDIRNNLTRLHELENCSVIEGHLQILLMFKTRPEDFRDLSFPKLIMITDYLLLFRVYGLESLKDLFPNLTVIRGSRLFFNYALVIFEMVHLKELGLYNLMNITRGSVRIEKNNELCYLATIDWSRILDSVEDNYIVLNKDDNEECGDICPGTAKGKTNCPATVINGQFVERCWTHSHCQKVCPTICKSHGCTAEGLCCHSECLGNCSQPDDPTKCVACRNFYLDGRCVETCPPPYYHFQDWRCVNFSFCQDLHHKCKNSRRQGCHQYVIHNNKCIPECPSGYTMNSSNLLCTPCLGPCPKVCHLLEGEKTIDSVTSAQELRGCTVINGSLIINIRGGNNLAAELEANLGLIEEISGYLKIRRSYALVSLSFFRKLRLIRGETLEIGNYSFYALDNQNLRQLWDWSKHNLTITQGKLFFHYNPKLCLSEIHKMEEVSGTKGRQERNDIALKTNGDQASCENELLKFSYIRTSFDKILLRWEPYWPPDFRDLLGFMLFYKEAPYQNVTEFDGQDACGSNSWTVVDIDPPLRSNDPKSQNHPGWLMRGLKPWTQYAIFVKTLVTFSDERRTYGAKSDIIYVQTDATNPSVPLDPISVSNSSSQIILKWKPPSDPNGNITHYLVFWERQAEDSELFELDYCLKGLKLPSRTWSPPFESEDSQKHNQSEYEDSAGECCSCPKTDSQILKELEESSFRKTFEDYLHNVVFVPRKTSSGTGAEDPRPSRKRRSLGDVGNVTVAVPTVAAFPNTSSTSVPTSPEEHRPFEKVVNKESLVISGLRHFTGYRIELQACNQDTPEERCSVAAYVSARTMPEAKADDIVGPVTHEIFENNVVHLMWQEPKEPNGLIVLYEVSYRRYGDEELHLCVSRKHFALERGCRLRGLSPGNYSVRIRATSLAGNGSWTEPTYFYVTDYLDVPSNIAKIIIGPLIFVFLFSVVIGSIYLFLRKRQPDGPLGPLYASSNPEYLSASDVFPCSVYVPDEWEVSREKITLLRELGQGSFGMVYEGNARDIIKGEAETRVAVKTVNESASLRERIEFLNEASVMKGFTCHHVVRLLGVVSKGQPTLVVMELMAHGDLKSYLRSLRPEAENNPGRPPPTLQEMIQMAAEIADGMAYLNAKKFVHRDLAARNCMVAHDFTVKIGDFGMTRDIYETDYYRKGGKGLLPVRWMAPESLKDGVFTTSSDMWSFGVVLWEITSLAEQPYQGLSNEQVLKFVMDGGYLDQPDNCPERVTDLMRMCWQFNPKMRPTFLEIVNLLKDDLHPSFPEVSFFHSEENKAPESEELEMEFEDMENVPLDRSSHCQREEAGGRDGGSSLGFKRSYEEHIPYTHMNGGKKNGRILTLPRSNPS
Data set [3] deals with DYRK1B (Homo sapiens, UniProt Q9Y463). The experiment in a line: Kinase panel: DYRK1B. It is filed as biochemical. To be noted: 10 μM EP009. As to the method: as §1
DYRK1B, sequence (Q9Y463 whole entry): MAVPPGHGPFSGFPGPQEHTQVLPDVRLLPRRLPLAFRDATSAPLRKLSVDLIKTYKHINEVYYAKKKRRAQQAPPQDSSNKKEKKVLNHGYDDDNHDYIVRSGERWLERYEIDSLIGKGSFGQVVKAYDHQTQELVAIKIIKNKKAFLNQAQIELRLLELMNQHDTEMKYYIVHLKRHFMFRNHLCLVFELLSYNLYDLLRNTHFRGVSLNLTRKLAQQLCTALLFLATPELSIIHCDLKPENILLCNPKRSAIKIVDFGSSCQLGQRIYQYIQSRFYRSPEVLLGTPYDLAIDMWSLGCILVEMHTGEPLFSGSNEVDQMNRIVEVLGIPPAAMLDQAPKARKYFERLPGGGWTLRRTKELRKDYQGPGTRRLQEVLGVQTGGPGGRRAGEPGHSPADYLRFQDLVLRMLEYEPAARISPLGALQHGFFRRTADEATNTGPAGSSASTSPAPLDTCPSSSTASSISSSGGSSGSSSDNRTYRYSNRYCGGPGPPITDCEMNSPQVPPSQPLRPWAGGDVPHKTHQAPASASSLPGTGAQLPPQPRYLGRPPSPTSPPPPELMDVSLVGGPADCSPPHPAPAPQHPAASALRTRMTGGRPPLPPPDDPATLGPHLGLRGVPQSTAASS
Data set [4] is described as follows: Stability in mouse plasma (LC-MS/MS). Particulars: indicated concentrations and incubation time points. It is filed as in vitro ADME. As to the method: FIG. 11 illustrates the dose-dependent effect of (FIG. 11A) freshly prepared EP-009(P) and (FIG. 11B) EP-009(P) stored in aqueous conditions for 48 hr at room temperature on IL-2/JAK3-dependent Kit225 cell viability. FIG. 12 illustrates LC-MS/MS detection of EP-009 (5 ng/ml) in mouse plasma at a retention time of 1.91 min.

Data set [5] deals with KIT(D816V) (Homo sapiens, UniProt P10721, D816V). The experiment in a line: Kinase panel: KIT(D816V). The data set is classed as biochemical. Particulars: 10 μM EP009. Here is the method:
as §1

Data set [6] deals with PKAC-alpha (Homo sapiens, UniProt P17612). Kind of data set: Kinase panel: PKAC-alpha. It is filed as biochemical. Particulars: 10 μM EP009. As to the method:
as §1

Data set [7] has as its target CDK2 (Homo sapiens, UniProt P24941). The experiment in a line: Kinase panel: CDK2. It is filed as biochemical. Particulars: 10 μM EP009. As to the method:
as §1

Data set [8] has as its system SUP-M2 cells. Kind of data set: SUP-M2 cell viability (MTS). Particulars: Homo sapiens; SUP-M2, 72 hours. It is filed as cell-based. Here is the method:
FIGS. 7A-7C. EP009 reduces ALCL cell viability through induction of caspase 3 mediated apoptosis. (A) SUP-M2, SU-DHL-1 or H2228 cells were cultured with increasing amounts of EP009 (0-10 μM) for 72 hours and cell viability measured with the MTS tetrazolium salt assay. Values represent mean absorbance (OD490-OD650 nm) normalized to vehicle (PBS) treated control cells, while error bars represent the standard deviation (n=3). (B) SU-DHL-1 cells were treated with vehicle (PBS) or increasing amounts of EP009 (0-50 μM) for 24 hours. Cells were then lysed, clarified, and subjected to Luminex multiplex analysis to detect activated caspase 3 and (C) cleaved PARP. Values represent MFI normalized to corresponding GAPDH MFI, while error bars represent the standard deviation (n=2). Representative data from three independent experiments are shown. Statistical significance was determined using Student's t-test. (*, p<0.05).
Cell viability was assessed with 3-(4,5-dimethylthiazol-2-yl)-5-(3-carboxymethoxyphenyl)-2-(4-sulfophenyl)-2H-tetrazolium salt (MTS) reagent (Promega) in triplicates according to the manufacturer's instructions. Three independent experiments were performed. The error bars represent standard deviation.

The target of data set [9] is ERK1 (Homo sapiens, UniProt P27361). The experiment in a line: Kinase panel: ERK1. To be noted: 10 μM EP009. It is filed as biochemical. Here is the method: as §1
ERK1, sequence (P27361 whole entry): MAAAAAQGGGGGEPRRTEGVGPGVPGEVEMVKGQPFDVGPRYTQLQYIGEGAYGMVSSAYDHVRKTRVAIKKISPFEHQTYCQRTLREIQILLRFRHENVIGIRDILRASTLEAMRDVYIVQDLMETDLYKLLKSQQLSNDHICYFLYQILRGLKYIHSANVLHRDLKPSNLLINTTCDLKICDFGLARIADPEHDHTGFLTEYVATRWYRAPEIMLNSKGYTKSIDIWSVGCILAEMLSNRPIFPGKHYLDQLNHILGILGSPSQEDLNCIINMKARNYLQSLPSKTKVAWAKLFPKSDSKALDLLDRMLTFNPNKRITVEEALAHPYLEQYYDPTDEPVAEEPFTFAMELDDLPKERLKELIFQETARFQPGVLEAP
The target in data set [10] is ERBB2 (Homo sapiens, UniProt P04626). The experiment in a line: Kinase panel: ERBB2. The data set is classed as biochemical. Particulars: 10 μM EP009. Here is the method: as §1
ERBB2, sequence (P04626 23-1255): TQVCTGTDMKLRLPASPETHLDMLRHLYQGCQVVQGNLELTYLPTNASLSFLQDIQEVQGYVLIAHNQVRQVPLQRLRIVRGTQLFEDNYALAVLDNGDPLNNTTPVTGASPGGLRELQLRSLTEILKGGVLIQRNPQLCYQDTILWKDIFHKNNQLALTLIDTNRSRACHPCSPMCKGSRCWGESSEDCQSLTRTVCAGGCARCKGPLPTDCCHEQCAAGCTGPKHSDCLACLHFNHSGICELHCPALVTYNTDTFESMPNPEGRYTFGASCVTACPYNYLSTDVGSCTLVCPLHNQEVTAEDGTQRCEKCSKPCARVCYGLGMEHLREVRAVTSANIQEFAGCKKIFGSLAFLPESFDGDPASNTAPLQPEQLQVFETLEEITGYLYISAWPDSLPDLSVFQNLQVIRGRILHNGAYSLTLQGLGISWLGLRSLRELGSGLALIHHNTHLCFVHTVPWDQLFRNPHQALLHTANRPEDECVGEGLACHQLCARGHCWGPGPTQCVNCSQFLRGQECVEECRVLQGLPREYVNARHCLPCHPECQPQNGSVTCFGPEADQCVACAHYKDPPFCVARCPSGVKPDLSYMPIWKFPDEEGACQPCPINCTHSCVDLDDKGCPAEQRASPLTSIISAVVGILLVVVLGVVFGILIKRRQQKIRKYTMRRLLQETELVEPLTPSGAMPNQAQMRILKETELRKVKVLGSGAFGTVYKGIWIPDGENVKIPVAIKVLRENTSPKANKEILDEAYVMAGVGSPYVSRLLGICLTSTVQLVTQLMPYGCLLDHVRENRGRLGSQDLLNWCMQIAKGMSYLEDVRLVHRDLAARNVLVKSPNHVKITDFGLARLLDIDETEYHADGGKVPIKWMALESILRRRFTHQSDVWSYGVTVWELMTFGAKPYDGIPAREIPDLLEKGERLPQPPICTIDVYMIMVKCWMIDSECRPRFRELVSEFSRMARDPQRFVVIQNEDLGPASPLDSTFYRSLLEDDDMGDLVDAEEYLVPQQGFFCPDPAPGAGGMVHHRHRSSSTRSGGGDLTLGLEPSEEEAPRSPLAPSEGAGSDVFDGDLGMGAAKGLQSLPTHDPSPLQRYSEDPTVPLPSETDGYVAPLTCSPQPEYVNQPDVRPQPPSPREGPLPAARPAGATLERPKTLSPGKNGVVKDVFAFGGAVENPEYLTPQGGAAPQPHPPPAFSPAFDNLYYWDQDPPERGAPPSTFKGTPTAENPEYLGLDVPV

KIT(D816V), sequence (P10721 26-976 D816V): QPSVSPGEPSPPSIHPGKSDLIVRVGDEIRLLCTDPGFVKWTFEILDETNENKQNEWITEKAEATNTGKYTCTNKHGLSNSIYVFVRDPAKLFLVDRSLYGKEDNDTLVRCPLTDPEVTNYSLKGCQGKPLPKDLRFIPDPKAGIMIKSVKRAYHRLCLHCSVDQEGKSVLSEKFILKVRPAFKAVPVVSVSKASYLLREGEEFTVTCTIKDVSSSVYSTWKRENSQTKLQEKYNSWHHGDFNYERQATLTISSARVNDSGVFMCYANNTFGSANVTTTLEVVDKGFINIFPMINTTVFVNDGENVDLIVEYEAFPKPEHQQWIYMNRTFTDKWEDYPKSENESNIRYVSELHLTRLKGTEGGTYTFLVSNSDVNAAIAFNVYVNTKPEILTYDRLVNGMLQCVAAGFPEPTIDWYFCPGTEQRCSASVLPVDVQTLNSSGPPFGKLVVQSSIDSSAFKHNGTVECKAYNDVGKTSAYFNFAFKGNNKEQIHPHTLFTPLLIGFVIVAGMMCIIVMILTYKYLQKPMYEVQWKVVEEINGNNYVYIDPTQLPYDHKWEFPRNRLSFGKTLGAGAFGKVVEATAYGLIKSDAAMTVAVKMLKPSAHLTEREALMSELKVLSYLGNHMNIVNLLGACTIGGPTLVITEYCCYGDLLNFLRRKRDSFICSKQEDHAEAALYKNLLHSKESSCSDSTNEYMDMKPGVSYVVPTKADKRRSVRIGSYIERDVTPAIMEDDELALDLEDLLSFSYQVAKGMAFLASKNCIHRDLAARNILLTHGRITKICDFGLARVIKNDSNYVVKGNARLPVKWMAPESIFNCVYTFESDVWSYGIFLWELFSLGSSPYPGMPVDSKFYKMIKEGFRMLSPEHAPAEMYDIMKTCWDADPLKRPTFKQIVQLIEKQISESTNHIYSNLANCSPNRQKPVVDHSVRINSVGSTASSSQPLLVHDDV

As for `C=C1CCCCCCCCCC(CO)C1=O` (stereo not shown) [EP009, 2-(Hydroxymethyl)-12-methylenecyclododecanone], the “Kinase Activity (% of Control)” value is given as 90 % of Control in data set [1]; 100 % of Control in data set [2]; 100 % of Control in data set [3]; 100 % of Control in data set [5]; 100 % of Control in [6]; 98 % of Control in data set [7]. Moreover, the “Kinase Activity (% of Control)” value in data set [9] and in data set [10] was 100 % of Control in each case. The “stability in mouse plasma” value in data set [4] is “stable and readily detected”. In data set [8], this molecule yielded a half-inhibitory concentration (IC50) of 5 µM.

As a reminder, the IC50 is the concentration at which inhibition is half-maximal. Read a high IC50 as weaker potency in that assay.
